Legend:
[1] = test system: ethanol induced gastric ulcers; assay: Ethanol induced ulcers; format: in vivo, albino rats; settings: rats, ethanol challenge; for Acidity Total mEg / Gastric content / pH: 4 hours after pylorus ligation
Method in brief: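 Rats in groups of 6, fasted 48 h, given Tween 80 (1%) vehicle, reference drugs, or test compounds at 25 mg/kg; lesions induced 1 h after ethanol challenge. Pylorus ligated under ether; 4 h later gastric contents centrifuged and total acid titrated with 0.01N NaOH.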

[2] = test system: gastric ulcers induced by aspirin, ethanol, stress and pylorus ligation; assay: Antigastric ulcer screening by four different models (statements in words); format: in vivo, albino rats; settings: summary statement
Source text: The compounds taken under study for antigastric ulcer screening by four different models were selected using experimental albino rats: • 1. Aspirin induced gastric ulceration • 2. Pylorus ligated gastric ulceration • 3. Ethanol induced gastric ulceration • 4. Stress induced gastric ulceration
The commercially available drug ranitidine (sigma), Omeprazole (sigma) and sucralfate (Merck) were used as reference standard in experimental models. The Tween-80 (SD fine chemicals) was used as vehicle for the administration of the drug, which is used as control.

COC(=O)C1OC(Oc2cc3oc(-c4ccccc4)cc(=O)c3cc2OC)C(O)C(O)C1O (centres unmarked) [OA-5, 3,4,5-trihydroxy-6-(6-methoxy-4-oxo-2-phenyl-4-H-chromen-7-yoloxy) tetrahydro-pyran-2-carboxylicacid methyl ester]
Inhibition % ([1]; 5 mg/kg): 30.01%
Ulcer index Mean(SE) ([1]; 5 mg/kg): 46.66 (±0.80)
Acidity Total mEg ([1]; 5 mg/kg): 42.66 (±3.95) m Eg
Gastric content ([1]; 5 mg/kg): 4.0 (±0.45)
pH ([1]; 5 mg/kg): 3.5 (±0.40)
Inhibition % ([1]; 10 mg/kg): 35.00%
Ulcer index Mean(SE) ([1]; 10 mg/kg): 43.33 (±5.40)
Acidity Total mEg ([1]; 10 mg/kg): 31.33 (±1.36) m Eg
Gastric content ([1]; 10 mg/kg): 4.2 (±0.07)
Inhibition % ([1]; 15 mg/kg): 60.61%
Ulcer index Mean(SE) ([1]; 15 mg/kg): 26.66 (±4.71)
Acidity Total mEg ([1]; 15 mg/kg): 29.66 (±1.36) m Eg
Gastric content ([1]; 15 mg/kg): 4.0 (±0.82)
pH ([1]; 15 mg/kg): 4.5 (±0.13)
Inhibition % ([1]; 25 mg/kg): 82.50%
Ulcer index Mean(SE) ([1]; 25 mg/kg): 11.66 (±4.47)
Acidity Total mEg ([1]; 25 mg/kg): 12.40 (±2.30) mEg
Gastric content ([1]; 25 mg/kg): 5.5 (±0.30)
pH ([1]; 25 mg/kg): 6.81 (±0.26)
Inhibition % ([1]; 50 mg/kg): 85.00%
Ulcer index Mean(SE) ([1]; 50 mg/kg): 10.00 (±6.23)
Acidity Total mEg ([1]; 50 mg/kg): 18.25 (±7.10) mEg
Gastric content ([1]; 50 mg/kg): 7.4 (±0.72)
pH ([1]; 50 mg/kg): 4.95 (±0.43)
antiulcer activity (in words) ([2]; listed as Oroxyloside methyl ester): excellent potent molecule
antiulcer activity (in words) ([2]; listed as oroxyloside methyl ester): potent activity

From patent publication US7855200B2, “Method for treatment of gastric ulcers and ulcers induced by aspirin” (Council of Scientific and Industrial Research, priority 2006, dated 2010)
